Experimental findings from ChEMBL document CHEMBL3992500, “Design, facile synthesis and biological evaluations of novel pyrano[3,2-a]phenazine hybrid molecules as antitumor agents” (Eur J Med Chem, 2017) are described below.

Calls of active or inactive are those of the source. The rule behind the calls is not given here. Bounds are passed on as bounds.

A short description of series [1]: Antitumor activity against mouse H22-H8D8 cells implanted in ICR mouse assessed as tumor growth inhibition at 10 mg/kg, iv relative to control. The series is classed as functional. The settings on record: read-out: TGI.
Series [2] deals with T1, DNA topoisomerase 1 (Homo sapiens) (UniProt P11387).
T1 sequence (whole entry): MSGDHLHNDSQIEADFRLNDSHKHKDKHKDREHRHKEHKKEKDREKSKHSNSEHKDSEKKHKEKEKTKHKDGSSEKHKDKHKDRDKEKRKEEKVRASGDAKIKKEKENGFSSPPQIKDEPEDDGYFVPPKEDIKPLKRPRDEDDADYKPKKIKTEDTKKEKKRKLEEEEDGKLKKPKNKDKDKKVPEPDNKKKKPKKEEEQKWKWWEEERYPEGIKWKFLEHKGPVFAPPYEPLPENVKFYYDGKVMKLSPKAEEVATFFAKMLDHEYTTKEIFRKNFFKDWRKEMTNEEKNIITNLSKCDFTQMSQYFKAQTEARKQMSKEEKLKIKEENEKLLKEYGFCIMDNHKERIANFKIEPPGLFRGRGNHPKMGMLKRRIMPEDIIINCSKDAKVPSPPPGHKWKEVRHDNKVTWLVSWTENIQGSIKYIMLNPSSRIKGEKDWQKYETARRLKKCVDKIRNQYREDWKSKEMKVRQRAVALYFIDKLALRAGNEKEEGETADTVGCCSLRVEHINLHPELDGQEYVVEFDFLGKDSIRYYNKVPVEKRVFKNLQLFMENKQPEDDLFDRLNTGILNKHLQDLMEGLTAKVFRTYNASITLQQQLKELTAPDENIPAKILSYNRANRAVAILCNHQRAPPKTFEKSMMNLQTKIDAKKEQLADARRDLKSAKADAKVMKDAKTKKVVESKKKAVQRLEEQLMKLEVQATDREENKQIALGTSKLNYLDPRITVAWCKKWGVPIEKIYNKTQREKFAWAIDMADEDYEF
Description: Inhibition of DNA topoisomerase-1 (unknown origin) assessed as reduction in enzyme-catalyzed relaxation of pBR322 DNA substrate at 20 uM after 30 mins by ethidium bromide staining based electrophoresis.

For series [3], the system named is Mus musculus. Description: Toxicity in ICR mouse implanted with mouse H22-H8D8 cells assessed as body weight at 20 mg/kg, iv (reference value: 29.89 to 33.78 g). The series is classed as organism-based. The settings on record: in vivo.
In series [4] the target is DNA topoisomerase 2-alpha (Homo sapiens) (UniProt P11388). Description: Inhibition of DNA topoisomerase-2alpha (unknown origin) assessed as reduction in enzyme-catalyzed relaxation of pBR322 DNA substrate at 20 uM after 30 mins by ethidium bromide staining based electrophoresis.
Sequence of DNA topoisomerase 2-alpha (Homo sapiens) (P11388 whole entry): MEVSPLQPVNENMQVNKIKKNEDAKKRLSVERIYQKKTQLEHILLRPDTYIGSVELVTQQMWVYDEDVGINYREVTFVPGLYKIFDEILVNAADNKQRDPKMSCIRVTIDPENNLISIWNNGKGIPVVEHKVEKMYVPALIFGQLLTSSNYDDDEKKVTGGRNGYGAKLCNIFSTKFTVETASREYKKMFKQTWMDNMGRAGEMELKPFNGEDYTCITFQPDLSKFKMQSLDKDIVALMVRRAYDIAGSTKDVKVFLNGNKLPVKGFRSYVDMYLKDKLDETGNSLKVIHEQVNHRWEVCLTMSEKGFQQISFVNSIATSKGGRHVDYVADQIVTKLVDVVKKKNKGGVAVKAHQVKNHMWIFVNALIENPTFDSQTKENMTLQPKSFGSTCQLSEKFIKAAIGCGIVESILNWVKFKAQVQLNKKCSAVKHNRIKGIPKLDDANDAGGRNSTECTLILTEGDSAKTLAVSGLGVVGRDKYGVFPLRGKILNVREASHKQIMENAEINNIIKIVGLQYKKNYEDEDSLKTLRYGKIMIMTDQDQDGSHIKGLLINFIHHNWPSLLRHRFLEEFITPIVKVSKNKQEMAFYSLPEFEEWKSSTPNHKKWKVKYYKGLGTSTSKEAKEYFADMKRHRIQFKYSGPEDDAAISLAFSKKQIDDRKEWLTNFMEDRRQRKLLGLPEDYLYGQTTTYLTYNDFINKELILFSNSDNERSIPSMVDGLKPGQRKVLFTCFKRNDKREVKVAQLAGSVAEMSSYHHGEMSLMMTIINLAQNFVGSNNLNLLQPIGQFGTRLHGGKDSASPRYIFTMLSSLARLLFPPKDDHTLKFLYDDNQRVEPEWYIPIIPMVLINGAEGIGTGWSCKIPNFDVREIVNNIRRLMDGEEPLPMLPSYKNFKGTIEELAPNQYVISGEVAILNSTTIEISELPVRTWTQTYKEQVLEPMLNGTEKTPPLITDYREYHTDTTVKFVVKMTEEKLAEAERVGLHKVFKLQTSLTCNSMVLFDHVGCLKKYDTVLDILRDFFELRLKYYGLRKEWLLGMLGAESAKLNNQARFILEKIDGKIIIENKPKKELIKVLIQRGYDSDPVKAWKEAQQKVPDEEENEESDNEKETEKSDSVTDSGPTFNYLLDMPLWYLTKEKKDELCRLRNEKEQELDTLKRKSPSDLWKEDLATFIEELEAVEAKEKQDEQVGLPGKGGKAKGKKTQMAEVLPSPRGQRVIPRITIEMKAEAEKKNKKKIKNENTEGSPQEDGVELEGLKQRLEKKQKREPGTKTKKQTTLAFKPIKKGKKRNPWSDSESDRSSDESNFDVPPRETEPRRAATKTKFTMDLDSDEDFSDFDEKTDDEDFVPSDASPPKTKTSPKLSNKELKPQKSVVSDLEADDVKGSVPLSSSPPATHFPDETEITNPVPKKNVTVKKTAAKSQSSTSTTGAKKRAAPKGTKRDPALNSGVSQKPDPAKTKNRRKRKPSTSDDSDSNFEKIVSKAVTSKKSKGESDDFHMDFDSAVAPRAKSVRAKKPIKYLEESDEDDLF
Series [5] in a line: Antitumor activity against mouse H22-H8D8 cells implanted in ICR mouse assessed as tumor growth inhibition at 5 mg/kg, iv relative to control. It counts as functional. To be noted: read-out: TGI.
Series [6] deals with Mus musculus. In words: Toxicity in ICR mouse implanted with mouse H22-H8D8 cells assessed as body weight at 5 mg/kg, iv (reference value: 29.89 to 33.78 g). The series is classed as organism-based. The settings on record: in vivo.
Another series deals with HCT-116. Description: Antiproliferative activity against human HCT116 cells after 48 hrs by MTT assay. The series is classed as functional, cell-based. The settings on record: HCT-116, 48 h. Background: Tetrazolium assays rely on reduction of a dye to a coloured formazan, in cell work by metabolically active cells.
The next series relates to HepG2. In words: Antiproliferative activity against human HepG2 cells after 48 hrs by MTT assay. The series is classed as functional, cell-based. The settings on record: HepG2, 48 h.
Series [7] deals with Mus musculus. Description: Toxicity in ICR mouse implanted with mouse H22-H8D8 cells assessed as body weight at 10 mg/kg, iv (reference value: 29.89 to 33.78 g). It counts as organism-based. The settings on record: in vivo.
Series [8] in a line: Antitumor activity against mouse H22-H8D8 cells implanted in ICR mouse assessed as tumor growth inhibition at 20 mg/kg, iv relative to control. It counts as functional. The settings on record: read-out: TGI.
The subject of a further series is A549. In words: Antiproliferative activity against human A549 cells after 48 hrs by MTT assay. The series is classed as functional, cell-based. To be noted: A549, 48 h.
The next series has as its system MCF7. Description: Antiproliferative activity against human MCF7 cells after 48 hrs by MTT assay. It counts as functional, cell-based. The settings on record: MCF7, 48 h.

The term IC50 denotes the concentration that gives 50% inhibition. A high value points to lower potency.

Regarding `N#CC1=C(N)Oc2c(N)cc3nc4ccccc4nc3c2C1c1ccc(Cl)cc1` (stereo unspecified), in series [1], the inhibition in vivo at 10 mg/kg turned out to be 11.7%. Moreover, the inhibition result in series [2] and in series [4] was “Active” in each case. For the same compound, the Activity with Mus musculus [3] is recorded as 37.22 g; in the series on Mus musculus [6] it was 40 g; in the series with Mus musculus [7], 41.33 g. Also, in [5], the inhibition in vivo at 5 mg/kg was 0.09%. Also, the IC50 in the series with HCT-116 amounted to 10.2 µM; in the series on HepG2 it was 2.2 µM; in the series on A549, 9.5 µM; in the series on MCF7, 18.6 µM. Besides, the inhibition in vivo at 20 mg/kg in series [8] came out at 57.7%.

As for `CCOC(=O)C1=C(N)Oc2c(N)cc3nc4ccccc4nc3c2C1c1cccc(Cl)c1Cl` (stereo unspecified), the inhibition in vivo at 10 mg/kg in series [1] turned out to be 4.5%. The inhibition entry in series [2] and in series [4] was “Active” in each case. For the same compound, the Activity in the series on Mus musculus [3] is recorded as 40.33 g; in the series with Mus musculus [6], 37.78 g; in the series with Mus musculus [7], 39.22 g. In addition, the inhibition in vivo at 5 mg/kg in [5] was found to be 27%. Further, the IC50 in the series with HCT-116 is 7.8 µM; in the series on HepG2, 4.48 µM; in the series with A549, 7.24 µM; in the series with MCF7, greater than 50 µM. In addition, the inhibition in vivo at 20 mg/kg in series [8] came to 26.1%.

On to `CCOC(=O)C1=C(N)Oc2c(N)cc3nc4ccccc4nc3c2C1c1ccccc1Br` (stereo unspecified), for which the inhibition in vivo at 10 mg/kg in series [1] is 28.9%. For the same compound, the inhibition entry in series [2] and in series [4] was “Active” in each case. Also, the Activity with Mus musculus [3] is 35.56 g; in the series with Mus musculus [6], 35.78 g; with Mus musculus [7], 37.44 g. Also, the inhibition in vivo at 5 mg/kg in series [5] was 38.9%. Besides, the IC50 came out at 30.2 µM in the series on HCT-116, 5 µM in the series with HepG2, 6.32 µM in the series on A549 and 28.4 µM with MCF7. The inhibition in vivo at 20 mg/kg in series [8] amounted to 45.6%.
